We go through ten compounds from patent publication US8772489B2, “Optically active 2-hydroxy tetrahydrothienopyridine derivatives, preparation method and use in manufacture of medicament thereof” (Jiangsu Vcare PharmaTech Co. Ltd., priority 2010, dated 2014).

In data set [1] the test system is platelet aggregation. Briefly: animal or person. Type of data set: in vivo. Conditions: Rattus norvegicus, read-out: Aggregation inhibition (%). The text has this: The positive control and the test compounds (prepared in the above examples) were formulated in 0.5% CMC-Na (carboxymethylcellulose sodium) into suspensions for administration to animals.
Animals: male SD rats, weighed about 250 g, and supplied by Shanghai Super-B&K Laboratory Animal Corp. Ltd. Animal certificate No.: 2008001605451, and license No.: SCXK (Hu); SCXK (Hu) 2008-0016.
Instruments: a centrifuge (80-2 bench top low-speed centrifuge), an automatic platelet aggregation tester (STELLEXLG-PAPER-I platelet coagulation/aggregation analyzer), and others.
Methods: the pharmacological activity test of the compounds of the present invention for platelet aggregation was performed following Born's turbidimetric method (Nature, 1962, 194(4832): 927). An agglomeration-promoting substance, adenosine diphosphate (ADP), was added to a platelet rich plasma (PRP), and stirred to allow platelets to aggregate. […] This experiment can be used to evaluate the platelet aggregation effect induced by the test compounds administrated in-vivo or in-vitro.
The PRP was adjusted with a platelet poor plasma (PPP) to maintain the platelet counts at […]. The PRP was taken into a test cup, and incubated at 37° C. for 10 min. Light transmission was adjusted to 0% with PRP and to 100% with PPP for each measurement. By using ADP (with a final concentration of 5 μM) as an inducer, the platelet aggregation percentages were measured through the turbidimetric method using a platelet aggregation tester, and statistically compared by t-test. The platelet aggregation inhibition was calculated by the equation: platelet aggregation inhibition (%)=[1−(aggregation percent in dosed tube/aggregation percent in control tube)]×100%.

Data set [2] in a line: Pharmacokinetics and bioavailability of Compound I-2 in rats (plasma Compound IV-1 by LC-MS/MS). It counts as in vivo, rat. Conditions: for Concentration of Compound IV-1 in plasma, single animals / concentration at 0.08 h / concentration at 0.167 h / concentration at 0.5 h / concentration at 1 h / concentration at 2 h / concentration at 4 h / concentration at 6 h: intravenous injection 8 μmol/kg; for concentration at 0.08 h / concentration at 0.167 h / concentration at 0.5 h / concentration at 1 h / concentration at 2 h / concentration at 4 h / concentration at 6 h: 8 μmol/kg. The text has this:
The rats were fasted overnight, but allowed free access to water.

Where [3] appears, read: male SD rats, oral gavage 3 mg/kg, blood after 2 hrs, ADP 5 μM.
Where [4] appears, read: male SD rats, oral gavage 10 mg/kg, blood after 2 hrs, ADP 5 μM.
The mark [5] stands for this setting: SD rats, intravenous injection 8 μmol/kg (2.7 mg/kg), individual animal.

Several values for one entry are separate records, joined by “and”; a condition that tells them apart may be missing. Equal entries are not always repeated. Structures can show the parent of a compound that is named as a salt. Where two headings read alike, the source gives them in different places.

The inhibition is the percentage by which the read-out fell short of the control. In the case of `COC(=O)C(c1ccccc1Cl)N1CCc2sc(OC(C)=O)cc2C1` (racemic) [I-2″, (R,S)-Methyl 2-(2-acetoxy-6,7-dihydrothieno[3,2-c]pyridin-5(4H)-yl)-2-(2-chlorophenyl)-acetate], in data set [1] (setting [3]), the inhibition at 3 mg/kg worked out at 43.9%. The inhibition at 10 mg/kg in data set [1] (setting [4]) is 78.5%.
In the case of `COC(=O)C(c1ccccc1Cl)N1CCc2sc(OC(=O)N(C)C)cc2C1` (racemic) [I-18′, (R,S)-Methyl 2-(2-(N,N-dimethylcarbamoyloxy)-6,7-dihydrothieno[3,2-c]pyridin-5(4H)-yl)-2-(2-chlorophenyl)-acetate], the inhibition at 3 mg/kg in data set [1] (po, 2 h) amounted to 29.8%.
For the compound `COC(=O)[C@H](c1ccccc1Cl)N1CCc2sccc2C1` [Clopidogrel sulfate, reference compound], in data set [1] (po, 2 h), the inhibition at 3 mg/kg was 15.4% and the inhibition at 10 mg/kg was 79.6%.
For `COC(=O)[C@H](c1ccccc1Cl)N1CCc2sc(OC(C)=O)cc2C1` [Compound I-2, (S)-Methyl 2-(2-acetoxy-6,7-dihydrothieno[3,2-c]pyridin-5(4H)-yl)-2-(2-chlorophenyl)-acetate], the inhibition at 3 mg/kg in data set [1] (setting [3]) was determined as 69.9%. Also, the inhibition at 10 mg/kg in data set [1] (setting [4]) turned out to be 83.5%.
With `CCC(=O)Oc1cc2c(s1)CCN([C@H](C(=O)OC)c1ccccc1Cl)C2` [Compound I-3, (S)-Methyl 2-(2-propanoyloxy-6,7-dihydrothieno[3,2-c]pyridin-5(4H)-yl)-2-(2-chlorophenyl)-acetate], the inhibition at 3 mg/kg in data set [1] (setting [3]) is 38.4%.
For `CCCC(=O)Oc1cc2c(s1)CCN([C@H](C(=O)OC)c1ccccc1Cl)C2` [Compound I-4, (S)-methyl 2-(2-butanoyloxy-6,7-dihydrothieno[3,2-c]pyridin-5 (4H)-yl)-2-(2-chlorophenyl)-acetate], in data set [1] (setting [3]), the inhibition at 3 mg/kg worked out at 46.2%.
Turning to `COC(=O)[C@H](c1ccccc1Cl)N1CCc2sc(OC(=O)c3ccccc3OC(C)=O)cc2C1` [Compound I-5, (S)-methyl 2-(2-(2-acetoxybenzoyloxy)-6,7-dihydrothieno[3,2-c]pyridin-5(4H)-yl)-2-(2-chlorophenyl)-acetate], in data set [1] (po, 2 h), the inhibition at 3 mg/kg worked out at 55.1%.
`COC(=O)[C@H](c1ccccc1Cl)N1CCc2sc(OC(=O)C(C)(C)C)cc2C1` [Compound I-7, (S)-methyl 2-(2-pivaloyloxy-6,7-dihydrothieno[3,2-c]pyridin-5(4H)-yl)-2-(2-chlorophenyl)-acetate]: the inhibition at 3 mg/kg in data set [1] (setting [3]) came out at 41.9%.
Same read-out and setting: under `COC(=O)[C@H](c1ccccc1Cl)N1CCc2sc(OC(=O)c3ccc(OC)cc3)cc2C1` [Compound I-11, (S)-Methyl 2-(2-(4-methoxybenzoyloxy)-6,7-dihydrothieno[3,2-c]pyridin-5(4H)-yl)-2-(2-chlorophenyl)-acetate] stands 13.6%.
The Cmax is the highest concentration seen after dosing. Usually Tmax stands for the time from dosing to the highest level. Take `COC(=O)[C@H](c1ccccc1Cl)N1CCC2SC(=O)C=C2C1` (stereo partly drawn) [IV-1, (2S)-Methyl 2-(2-oxo-7,7a-dihydrothieno[3,2-c]pyridin-5 (2H,4H,6H)-yl)-2-(2-chlorophenyl)-acetate]: in data set [2] (setting [5]), the “AUC0-t of Compound IV-1, single animals” value was 304 µg·h/L and 229 µg·h/L. The “AUC0-∞ of Compound IV-1, single animals” value in data set [2] (setting [5]) was 306 µg·h/L and 229 µg·h/L. Besides, in data set [2] (setting [5]), the “CLtot of Compound IV-1, single animals” value was 8.84 L/h/kg and 11.8 L/h/kg. In addition, the “Cmax of Compound IV-1, single animals” value in data set [2] (setting [5]) is 785 µg/L and 533 µg/L. Further, the “V2 of Compound IV-1, single animals” value in data set [2] (setting [5]) is 18.8 L/kg and 15.9 L/kg and 10.9 L/kg. The “t1/2 of Compound IV-1, single animals” value in data set [2] (setting [5]) is 1.30 h and 1.25 h and 0.643 h. Besides, the “V2 of Compound IV-1, Mean” value in data set [2] (SD rats, intravenous injection 8 μmol/kg (2.7 mg/kg), mean of 3) is reported as 15.2 L/kg. The “Concentration of Compound IV-1 in plasma, single animals” value was 785 ng/mL and 533 ng/mL in data set [2] (SD rats, 0.08 h, individual animal); 417 ng/mL and 311 ng/mL in data set [2] (SD rats, 0.167 h, individual animal); 129 ng/mL and 107 ng/mL in data set [2] (SD rats, 0.5 h, individual animal); 49.3 ng/mL and 37.3 ng/mL in data set [2] (SD rats, 1 h, individual animal); 9.06 ng/mL and 9.74 ng/mL in data set [2] (SD rats, 2 h, individual animal); 2.87 ng/mL and 2.02 ng/mL in data set [2] (SD rats, 4 h, individual animal). Also, the “Concentration of Compound IV-1 in plasma, single animals” value in data set [2] (SD rats, 6 h, individual animal) is 0.977 ng/mL and 1.06 ng/mL. In addition, the AUC(0-t) turned out to be 266 ng·h/mL in data set [2] (male, SD, rat, plasma, iv, 2.7 mg/kg, intravenous injection 8 μmol/kg (2.7 mg/kg), individual animal, read-out: AUC0-t of Compound IV-1, single animals) and 266 ± 37.6 ng·h/mL in data set [2] (male, Sprague-Dawley, rat, plasma, iv, 8 umol/kg, SD rats, intravenous injection 8 μmol/kg (2.7 mg/kg), mean of 3, read-out: AUC0-t of Compound IV-1, Mean). In addition, the AUC(0-inf) is 269 ng·h/mL in data set [2] (male, SD, rat, plasma, iv, 2.7 mg/kg, intravenous injection 8 μmol/kg (2.7 mg/kg), individual animal, read-out: AUC0-∞ of Compound IV-1, single animals) and 268 ± 38.3 ng·h/mL in data set [2] (male, Sprague-Dawley, rat, plasma, iv, 8 umol/kg, SD rats, intravenous injection 8 μmol/kg (2.7 mg/kg), mean of 3, read-out: AUC0-∞ of Compound IV-1, Mean). Further, the clearance is 167 mL/min/kg in data set [2] (male, SD, rat, plasma, iv, 2.7 mg/kg, intravenous injection 8 μmol/kg (2.7 mg/kg), individual animal, read-out: CLtot of Compound IV-1, single animals (converted)) and 170 mL/min/kg in data set [2] (male, SD, rat, plasma, iv, 2.7 mg/kg, intravenous injection 8 μmol/kg (2.7 mg/kg), mean of 3, read-out: CLtot of Compound IV-1, Mean (converted)). Moreover, the Cmax worked out at 696 ng/mL in data set [2] (male, SD, rat, plasma, iv, 2.7 mg/kg, intravenous injection 8 μmol/kg (2.7 mg/kg), individual animal, read-out: Cmax of Compound IV-1, single animals) and 671 ± 128 ng/mL in data set [2] (male, Sprague-Dawley, rat, plasma, iv, 8 umol/kg, SD rats, intravenous injection 8 μmol/kg (2.7 mg/kg), mean of 3, read-out: Cmax of Compound IV-1, Mean). Besides, the time of peak concentration (Tmax) in data set [2] (male, Sprague-Dawley, rat, plasma, 8 umol/kg, SD rats, intravenous injection 8 μmol/kg (2.7 mg/kg), mean of 3, read-out: Tmax of Compound IV-1, Mean) was 4.98 min; in data set [2] (male, rat, plasma, SD rats, intravenous injection 8 μmol/kg (2.7 mg/kg), individual animal, read-out: Tmax of Compound IV-1, single animals), 4.98 min. In addition, the half-life in data set [2] (male, Sprague-Dawley, rat, plasma, iv, 8 umol/kg, SD rats, intravenous injection 8 μmol/kg (2.7 mg/kg), mean of 3, read-out: t1/2 of Compound IV-1, Mean (converted)) is 63.6 ± 21.8 min. The concentration at 0.08 h came out at 696 ng/mL in data set [2] (male, Sprague-Dawley, rat, plasma, iv, SD rats, 0.08 h, individual animal, read-out: Concentration of Compound IV-1 in plasma, single animals) and 671 ng/mL in data set [2] (male, Sprague-Dawley, rat, plasma, iv, SD rats, 0.08 h, mean of 3, read-out: Concentration of Compound IV-1 in plasma, Mean). Moreover, the concentration at 0.167 h in data set [2] (male, Sprague-Dawley, rat, plasma, iv, SD rats, 0.167 h, individual animal, read-out: Concentration of Compound IV-1 in plasma, single animals) was 317 ng/mL; in data set [2] (male, Sprague-Dawley, rat, plasma, iv, SD rats, 0.167 h, mean of 3, read-out: Concentration of Compound IV-1 in plasma, Mean) it was 348 ng/mL. The concentration at 0.5 h amounted to 108 ng/mL in data set [2] (male, Sprague-Dawley, rat, plasma, iv, SD rats, 0.5 h, individual animal, read-out: Concentration of Compound IV-1 in plasma, single animals) and 115 ng/mL in data set [2] (male, Sprague-Dawley, rat, plasma, iv, SD rats, 0.5 h, mean of 3, read-out: Concentration of Compound IV-1 in plasma, Mean). For the same compound, the concentration at 1 h was 51 ng/mL in data set [2] (male, Sprague-Dawley, rat, plasma, iv, SD rats, 1 h, individual animal, read-out: Concentration of Compound IV-1 in plasma, single animals) and 45.9 ng/mL in data set [2] (male, Sprague-Dawley, rat, plasma, iv, SD rats, 1 h, mean of 3, read-out: Concentration of Compound IV-1 in plasma, Mean). The concentration at 2 h in data set [2] (male, Sprague-Dawley, rat, plasma, iv, SD rats, 2 h, individual animal, read-out: Concentration of Compound IV-1 in plasma, single animals) amounted to 10.9 ng/mL; in data set [2] (male, Sprague-Dawley, rat, plasma, iv, SD rats, 2 h, mean of 3, read-out: Concentration of Compound IV-1 in plasma, Mean), 9.9 ng/mL. The concentration at 4 h in data set [2] (male, Sprague-Dawley, rat, plasma, iv, SD rats, 4 h, individual animal, read-out: Concentration of Compound IV-1 in plasma, single animals) is 3.94 ng/mL; in data set [2] (male, Sprague-Dawley, rat, plasma, iv, SD rats, 4 h, mean of 3, read-out: Concentration of Compound IV-1 in plasma, Mean), 2.94 ng/mL. The concentration at 6 h came out at 1.29 ng/mL in data set [2] (male, Sprague-Dawley, rat, plasma, iv, SD rats, 6 h, individual animal, read-out: Concentration of Compound IV-1 in plasma, single animals) and 1.11 ng/mL in data set [2] (male, Sprague-Dawley, rat, plasma, iv, SD rats, 6 h, mean of 3, read-out: Concentration of Compound IV-1 in plasma, Mean).
